Structures can show the parent of a compound that is named as a salt. Where two headings read alike, the source gives them in different places.
Assays:
IDO-1 = IDO-1 (Homo sapiens (Human), UniProt P14902); test: Indoleamine-2,3-dioxygenase 1 inhibitory activity (absorbance at 321 nm); type: biochemical
Experimental: Experimental method: IDO-1 can oxidatively cleave the indole ring of tryptophan to form N-formylkynurenine. Referring to the method in the literature (Eddy W. Yue, et al. J. Med. Chem. 2009, 52, 7364-7367), 20 nM IDO-1, 2 mM D-tryptophan, 20 mM ascorbic acid, 3.5M methyl blue and 0.2 mg/mL antioxidant enzyme were sequentially added to 50 mM potassium phosphate buffer at room temperature. Due to the formation of N-formylkynurenine, the reaction rate was recorded by the increasing absorbance of the solution at 321 nm. IC50 values were calculated using Prism GraphPad software.

TDO = TDO (Homo sapiens (Human), UniProt P48775); test: Tryptophan-2,3-dioxygenase inhibitory activity (absorbance at 321 nm); type: biochemical; conditions: read-out: TDO Inhibition rate
Experimental: Experimental method: TDO can oxidatively cleave the indole ring of tryptophan to form N-formylkynurenine. Referring to the method in the reference (Eddy W. Yue, et al. J. Med. Chem. 2009, 52, 7364-7367), a detection buffer containing 50 nM TDO, 10μM inhibitor, 200μM tryptophan, and the like were sequentially added thereto at room temperature. Due to the formation of N-formylkynurenine, the reaction rate was recorded by the increasing absorbance of the solution at 321 nm. IC50 values were calculated using Prism GraphPad software.

T cells = conditions: cited from earlier work
melanoma B16 [1] = test: Repeated verification, melanoma B16 in mice experiment; type: in vivo, C57BL/6J mice; conditions: intragastric 20 mg/kg once daily, 14 days
Experimental: The in vivo efficacy of compound was tested in three groups (6 in each group) of C57BL/6J mice bearing melanoma B16. CY-1-26 hydrochloride was intragastrically administered at 20 mg/kg (suspended in 0.5% sodium carboxymethyl cellulose solution), and 1-MT was a positive control (200 mg/kg, suspended in 0.5% sodium carboxymethyl cellulose solution), the blank control was 0.5% sodium carboxymethyl cellulose solution, all once daily dose. On the day of the first dose, the relevant indicators were observed, measured and recorded. At the end of the experiment, the tumor-bearing mice were sacrificed and the tumor pieces were dissected and weighed.
The tumor-bearing mice were administered by continuous intragastric administration for 14 days. The body weight of the animals in the drug-administered group was slightly slower than that of the negative control group. The animals were in good condition and no obvious side effects were observed.
After 14 days of administration, the animals were euthanized, the subcutaneous tumors were dissected, weighed, and the animals were dissected for gross observation.

melanoma B16 [2] = test: Melanoma B16 in mice experiment; type: in vivo, C57BL/6J mice; conditions: intragastric once daily, 10 days; CY-1-26 20 mg/kg, 1-MT 200 mg/kg
Experimental: The in vivo efficacy of compound was tested with C57BL/6J mice bearing melanoma B16. The intragastric administration was 20 mg/kg, and 1-MT was a positive control (200 mg/kg), which was once daily. The observation and measurement were started on the day of the first administration, and the relevant indicators were recorded. The tumor-bearing mice were sacrificed at the end of the experiment, and the tumor pieces were dissected and weighed.
The tumor-bearing mice were administered by continuous intragastric administration for 10 days. The body weight of the animals in the drug-administered group was slightly slower than that of the negative control group. The animals were in good condition and no obvious side effects were observed.
After 10 days of administration, the animals were euthanized, the subcutaneous tumors were dissected, weighed, and the animals were dissected for gross observation.

TNF-α = conditions: concentration up to 20 μM; cited from earlier work
Lewis lung cancer = Lewis lung cancer in mice, in vivo anti-tumor experiment; design: species or system C57BL/6J mice; conditions: intraperitoneal 20 mg/Kg, 11 days
Experimental: The observation and measurement were started on the day of the first administration, and the relevant indicators were recorded. The tumor-bearing mice were sacrificed at the end of the experiment, and the tumor pieces were dissected and weighed. The tumor-bearing mice were administered intraperitoneally for 11 days. […] After 11 days of continuous intraperitoneal injection of tumor-bearing mice, the animals were euthanized, the subcutaneous tumors were dissected, weighed, photographed, and the animals were dissected for gross observation.

[3] = 20 nM IDO-1, 2 mM D-tryptophan, read-out: IDO-1 inhibitory activity, IC50
[4] = compound at 10 μM, 50 nM TDO, 200 μM tryptophan
[5] = Table 1, comparison with tryptanthrins 5a, 5b, 5c, 5i, read-out: Comparison of inhibitory activity of the IDO1, IC50

Sequence of IDO-1 (P14902 whole entry): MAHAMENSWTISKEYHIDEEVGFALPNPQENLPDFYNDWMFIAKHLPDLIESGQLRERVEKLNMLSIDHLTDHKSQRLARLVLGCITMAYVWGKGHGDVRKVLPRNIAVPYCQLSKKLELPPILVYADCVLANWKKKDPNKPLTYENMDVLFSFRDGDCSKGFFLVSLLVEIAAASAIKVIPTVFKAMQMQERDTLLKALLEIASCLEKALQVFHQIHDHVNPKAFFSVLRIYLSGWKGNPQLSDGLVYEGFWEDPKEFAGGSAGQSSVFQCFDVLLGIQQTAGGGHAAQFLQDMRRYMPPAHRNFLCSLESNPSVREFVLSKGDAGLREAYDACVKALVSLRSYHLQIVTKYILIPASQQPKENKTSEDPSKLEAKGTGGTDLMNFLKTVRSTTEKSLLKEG
Sequence of TDO (P48775 whole entry): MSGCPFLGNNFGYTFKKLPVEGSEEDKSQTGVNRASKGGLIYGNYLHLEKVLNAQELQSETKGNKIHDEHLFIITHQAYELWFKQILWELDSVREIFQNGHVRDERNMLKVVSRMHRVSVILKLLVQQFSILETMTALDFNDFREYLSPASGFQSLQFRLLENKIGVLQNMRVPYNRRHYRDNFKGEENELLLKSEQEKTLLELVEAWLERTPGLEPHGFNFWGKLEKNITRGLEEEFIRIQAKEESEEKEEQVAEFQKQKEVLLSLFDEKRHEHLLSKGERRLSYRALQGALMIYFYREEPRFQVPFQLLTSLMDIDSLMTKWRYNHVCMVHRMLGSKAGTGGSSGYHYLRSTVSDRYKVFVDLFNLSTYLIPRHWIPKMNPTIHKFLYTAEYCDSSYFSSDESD

| Compound | IC50 (IDO-1; [3]) | also measured |
| --- | --- | --- |
| CON=C1c2cc([N+](=O)[O-])ccc2-n2c1nc1ncccc1c2=O [CY-1-25, 11-(methoxyimino)-9-nitropyrido[2′,3′: 4,5]pyrimido[1,2-α]indol-5 (11H)-one] | 110 to 1000 nM |  |
| NC(=S)NN=C1c2cc([N+](=O)[O-])ccc2-n2c1nc1ncccc1c2=O [CY-1-29, 2-(9-nitro-5-oxopyrido[2′,3′:4,5]pyrimido[1,2-c]indol-11(5H)-ylidene)hydrazine-1-carbothioamide] |  | inhibition at 10 µM (TDO; [4]): 93% |
| COc1ccc2c(c1)C(=NO)c1nc3ncccc3c(=O)n1-2 [CY-1-15, 11-(hydroxyimino)-9-methoxypyrido[2′,3′:4,5]pyrimido[1,2-α]indole-5(11H)-one] | 1100 to 10000 nM |  |
| N=C(N)NN=C1c2cc([N+](=O)[O-])ccc2-n2c1nc1ncccc1c2=O [CY-1-23, 2-(9-nitro-5-oxopyrido[2′,3′:4,5]pyrimido[1,2-c]indol-11(5H)-ylidene)hydrazine-1-carboximidamide] |  | inhibition at 10 µM (TDO): 86% |
| COc1ccc2c(c1)C(=O)c1nc3cnccc3c(=O)n1-2 [CY-1-9, 9-methoxypyrido[3′,4′:4,5]pyrimido[1,2-c]indole-5,11-dione] | 1100 to 10000 nM |  |
| COc1ccc2c(c1)C(=NNC(=S)N(C)C)c1nc3ncccc3c(=O)n1-2 [CY-1-30, 2-(9-methoxy-5-oxopyrido[2′,3′:4,5]pyrimido[1,2-α]indol-11(5H)-ylidene)-N,N-di methyl-hydrazine-1-carbothioamide] | 1100 to 10000 nM |  |
| CN(C)CCON=C1c2ccccc2-n2c1nc1ncccc1c2=O [CY-1-16, 11-((2-(dimethylamino)ethoxy)imino)pyrido[2′,3′:4,5]pyrimido[1,2-α]indole-5(11H)-one] | 110 to 1000 nM |  |
| O=C1c2cc(F)ccc2-n2c1nc1ccccc1c2=O |  | proliferation of T cells (T cells): can promote the proliferation of T cells |
| O=C1c2cc(Cl)ccc2-n2c1nc1cnccc1c2=O [CY-1-10, 9-chloropyrido[3′,4′: 4,5]pyrimido[1,2-α]indole-5,11-dione] | 110 to 1000 nM | inhibition at 10 µM (TDO): 8% |
| CCON=C1c2cc([N+](=O)[O-])ccc2-n2c1nc1ncccc1c2=O [CY-1-26 hydrochloride] |  | tumor inhibition rate (tumor weight) (melanoma B16 [1]): 46.0% |
| O=C1c2ccccc2-n2c1nc1ncccc1c2=O [CY-1-1, pyrido[2′,3′:4,5]pyrimido[1,2-α]indole-5,11-dione] | 110 to 1000 nM | IC50 (IDO-1; [5]): 100 to 1000 nM |
| O=C1c2cc(Cl)ccc2-n2c1nc1ncccc1c2=O [CY-1-5, 9-chloropyrido[2′,3′:4,5]pyrimido[1,2-c]indole-5,11-dione] |  | inhibition at 10 µM (TDO; [4]): 35% |
| CCON=C1c2cc([N+](=O)[O-])ccc2-n2c1nc1ncccc1c2=O [CY-1-26, 11-(ethoxyimino)-9-nitropyrido[2′,3′:4,5]pyrimido[1,2-α]indol-5(11H)-one] | 1100 to 10000 nM | tumor inhibition rate (tumor weight) (melanoma B16 [2]): 33.0% |
| Cn1cc(CC(N)C(=O)O)c2ccccc21 (centres unmarked) [Compound 1-MT, reference compound] |  | tumor inhibition rate (tumor weight) (melanoma B16 [2]): 26.3% |
| CN(C)CCON=C1c2cc(Cl)ccc2-n2c1nc1ncccc1c2=O [CY-1-18, 9-chloro-11-((2-(dimethylamino)ethoxy)imino)pyrido[2′,3′:4,5]pyrimido[1,2-α]indol-5(11H)-one] | 110 to 1000 nM |  |
| CN(C)CCCON=C1c2cc(Cl)ccc2-n2c1nc1ncccc1c2=O [CY-1-20, 9-chloro-11-((3-(dimethylamino)propoxy)imino)pyrido[2′,3′:4,5]pyrimido[1,2-α]indol-5(11H)-one] | 1100 to 10000 nM |  |
| Cc1ccc2c(c1)C(=O)c1nc3ncccc3c(=O)n1-2 [CY-1-7, 9-methylpyrido[2′,3′:4,5]pyrimido[1,2-c]indole-5,11-dione] | 110 to 1000 nM | IC50 (IDO-1; [5]): 100 to 1000 nM |

| Compound | IC50 (IDO-1; [3]) | also measured |
| --- | --- | --- |
| O=c1c2cccnc2nc2n1-c1ccc(Cl)cc1C2=NO [CY-1-13, 9-chloro-11-(hydroxyimino)pyrido[2′,3′:4,5]pyrimido[1,2-α]indole-5(11H)-one] | 110 to 1000 nM | inhibition at 10 µM (TDO; [4]): 6% |
| COc1ccc2c(c1)C(=O)c1nc3ncccc3c(=O)n1-2 [CY-1-6, 9-methoxypyrido[2′,3′:4,5]pyrimido[1,2-c]indole-5,11-dione] | 110 to 1000 nM |  |
| O=C1c2cc([N+](=O)[O-])ccc2-n2c1nc1cccnc1c2=O [8-nitro-1-aza-tryptanthrin] |  | activity in production of TNF-α (TNF-α): did not exhibit activity |
| O=C1c2ccccc2-n2c1nc1cnccc1c2=O [CY-1-8, pyrido[3′,4′:4,5]pyrimido[1,2-c]indole-5,11-dione] | 110 to 1000 nM | IC50 (IDO-1; [5]): 100 to 1000 nM |
| O=C1c2cc(F)ccc2-n2c1nc1ncccc1c2=O [CY-1-2, 9-fluoropyrido[2′,3′:4,5]pyrimido[1,2-c]indole-5,11-dione] |  | inhibition at 10 µM (TDO; [4]): 44% |
| CN(C)CCON=C1c2cc(F)ccc2-n2c1nc1ncccc1c2=O [CY-1-19, 11-((2-(dimethylamino)ethoxy)imino)-9-fluoropyrido[2′,3′:4,5]pyrimido[1,2-α]indol-5(11H)-one] | 110 to 1000 nM |  |
| O=c1c2cccnc2nc2n1-c1ccccc1C2=NO [CY-1-12, 11-(hydroxyimino)pyrido[2′,3′:4,5]pyrimido[1,2-α]indol-5(11H)-one] | 1100 to 10000 nM |  |
| C=CCON=C1c2cc([N+](=O)[O-])ccc2-n2c1nc1ncccc1c2=O [CY-1-27, 11-((allyloxy)imino)-9-nitropyrido[2′,3′:4,5]pyrimido[1,2-α]indol-5(11H)-one] | 1100 to 10000 nM |  |
| O=c1c2cccnc2nc2n1-c1ccc([N+](=O)[O-])cc1C2=NOS(=O)(=O)O [CY-1-24, (((9-nitro-5-oxopyrido[2′,3′:4,5]pyrimido[1,2-α]indol-11(5H)-ylidene)amino)oxy) sulfonic acid] | 110 to 1000 nM |  |
| Cc1ccc2c(c1)C(=NO)c1nc3ncccc3c(=O)n1-2 [CY-1-14, 11-(hydroxyimino)-9-methylpyrido[2′,3′: 4,5]pyrimido[1,2-α]indole-5 (11H)-one] | 1100 to 10000 nM |  |
| O=C1c2cc(OC(F)(F)F)ccc2-n2c1nc1ncccc1c2=O [CY-1-3, 9-(trifluoromethoxy)pyrido[2′,3′:4,5]pyrimido[1,2-c]indole-5,11-dione] |  | inhibition at 10 µM (TDO; [4]): 16% |
| O=P1(N(CCCl)CCCl)NCCCO1 (centres unmarked) [cyclophosphamide, reference compound] |  | tumor inhibition rate (tumor weight) (Lewis lung cancer): 29.9% |
| O=C1c2cc(F)ccc2-n2c1nc1cnccc1c2=O [CY-1-11, 9-fluoropyrido[3′,4′:4,5]pyrimido[1,2-α]indole-5,11-dione] | 110 to 1000 nM | IC50 (IDO-1; [5]): 100 to 1000 nM |
| O=C1c2cc([N+](=O)[O-])ccc2-n2c1nc1ncccc1c2=O [CY-1-4, 9-nitropyridine[2′,3′:4,5]pyrimido[1,2-c]indole-5,11-dione] |  | inhibition at 10 µM (TDO): 97% |
| O=c1c2cccnc2nc2n1-c1ccc([N+](=O)[O-])cc1C2=NOCCO [CY-1-21, 11-((2-hydroxyethoxy)imino)-9-nitropyrido[2′,3′:4,5]pyrimido[1,2-α]indol-5(11H)-one] | 110 to 1000 nM |  |
| CN(C)CCON=C1c2cc([N+](=O)[O-])ccc2-n2c1nc1ncccc1c2=O [CY-1-17, 11-((2-(dimethylamino)ethoxy)imino)-9-nitropyrido[2′,3′:4,5]pyrimido[1,2-α]indol-5(11H)-one] |  | inhibition at 10 µM (TDO; [4]): 64%; tumor inhibition rate (tumor weight) (Lewis lung cancer): 51.8% |

From patent US10669273B2, “Use of aza-tryptanthrin derivatives as inhibitors of IDO1 and/or TDO” (Peking University, priority 2016, dated 2020)
